Data set [1] has as its target human recombinant adenosine kinase (Homo sapiens, UniProt P55263). Put plainly: Inhibition of human recombinant adenosine kinase. The data set is classed as biochemical. Conditions: 14C-adenosine substrate, 0.5 mM ATP, 37° C., 20 min; read-out: Adenosine kinase inhibition (in vitro): IC50. On the procedure:
1. Inhibition of Human Recombinant Adenosine Kinase
The test is carried out on 96-well filter plates (DE81 from Millipore, DEAE cellulose, 0.65 μm). The test buffer contains 50 mM tris/HCl pH 8.0, 10 mM DTT and 1 mM MgCl2; immediately prior to the start of the test, ATP is added in a concentration of 0.5 mM. The substrate used is ^14C-adenosine, diluted 1:30 in cold adenosine; the final concentration of the cold adenosine is 4×10^−6 M; the amount of ^14C-adenosine is chosen such that, at a volume of 10 μl, an activity of 0.5 kBq (=30 000 decays per minute) is present per well of the filter plate. The substances to be tested are dissolved in DMSO in a concentration of 10^−2 M. Further dilutions are carried out using water.
When carrying out the test, initially 80 μl of buffer are initially charged into each well. The test substances, the substrate adenosine and finally human recombinant adenosine kinase (Mathews J. J. et al., Biochemistry (1998) 37, 15607-15620) in test buffer pH 7.4 are added successively, in each case in a volume of 10 μl. The adenosine kinase concentration is chosen such that at most 30% of the total amount of adenosine are converted. The plates are then incubated at 37° C. for 20 min. The reaction is then stopped by filtration with suction. The filters are washed in each case once with ice-cold wash buffer (15 mM Tris/HCl pH 8.5) and ethanol. The plate is dried at 37° C. (about 15 min). 50 μl of scintillation solution are then pipetted into each well, and the ^14C activity is determined in a MicroBeta counter.
The inhibition of the enzyme activity by the substances tested is determined after substration of the blank value (no added enzyme) in comparison to the uninhibited enzyme (100% value).

Where a name gives a salt, the structure may show the parent alone.

For 9 compounds, melting point and IC50 results are on record in patent publication US20040259888A1, “Novel 4-aminofuropyrimidines and the use thereof” (priority 2001, published 2004).

As a reminder, the melting point is the temperature, or range, at which the solid turns liquid. In general, IC50 refers to the concentration at which inhibition is half-maximal.

human recombinant adenosine kinase, sequence (P55263 1-345 isoform P55263-2): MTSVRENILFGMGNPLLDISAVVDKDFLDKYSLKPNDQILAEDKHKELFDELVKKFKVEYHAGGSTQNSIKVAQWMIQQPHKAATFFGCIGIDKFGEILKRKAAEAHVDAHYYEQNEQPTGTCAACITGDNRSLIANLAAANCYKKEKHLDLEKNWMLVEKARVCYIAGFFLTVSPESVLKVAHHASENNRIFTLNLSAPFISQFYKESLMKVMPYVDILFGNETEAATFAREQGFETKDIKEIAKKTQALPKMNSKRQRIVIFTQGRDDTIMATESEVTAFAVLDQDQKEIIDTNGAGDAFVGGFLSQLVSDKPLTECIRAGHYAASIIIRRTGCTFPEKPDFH

In the case of `CN1CCN(c2ncnc3oc(-c4ccc(N)cc4)c(-c4ccc(F)cc4)c23)CC1` [Example 4, 4-[5-(4-Fluorophenyl)-4-(4-methyl-1-piperazinyl)furo[2,3-d]pyrimidin-6-yl]aniline], the melting point was 214 to 215 °C. Also, the half-inhibitory concentration (IC50) in data set [1] is 50 nM.

As for `CN1CCN(c2ncnc3oc(-c4ccc(N)nc4)c(-c4ccccc4)c23)CC1` [Example 8, 5-[4-(4-Methyl-1-piperazinyl)-5-phenylfuro[2,3-d]pyrimidin-6-yl]-2-pyridineamine], the melting point was 229 to 231 °C. Also, in data set [1], the IC50 was found to be 80 nM. `CN(C)CC(=O)Nc1ccc(-c2oc3ncnc(N4CCOCC4)c3c2-c2ccc(F)cc2)cc1` [Example 35] returned a melting point of 228 to 235 °C. For the same compound, in data set [1], the IC50 was 20 nM.

For the compound `CN1CCN(c2ncnc3oc(-c4ccc(NCCO)nc4)c(-c4ccccc4)c23)CC1` [Example 37], the melting point was 219 to 221 °C. In data set [1], the IC50 is 20 nM.

With `OC1CCN(c2ccc(-c3oc4ncnc(N5CCC(O)CC5)c4c3-c3ccc(F)cc3)cn2)CC1` [Example 198, 1-{5-[5-(4-Fluorophenyl)-4-(4-hydroxy-1-piperidinyl)furo[2,3-d]pyrimidin-6-yl]-2-pyridinyl}-4-piperidinol], the concentration for half-maximal inhibition (IC50) in data set [1] turned out to be 20 nM.

Turning to `O=C(Nc1ccc(-c2oc3ncnc(N4CCC(O)CC4)c3c2-c2ccc(F)cc2)cc1)[C@@H]1CCCN1` [Example 201, N-{4-[5-Fluorophenyl)-4-(4-hydroxy-1-piperidinyl)furo[2.3-d]pyrimidin-6-yl]-phenyl}-L-prolinamide Hydrochloride], the IC50 in data set [1] stood at 20 nM. In the case of `CC(=O)N1CCN(c2ccc(-c3oc4ncnc(N5CCC(O)CC5)c4c3-c3ccc(F)cc3)cn2)CC1` [Example 255], in data set [1], the IC50 was found to be 5 nM.

`NC1CCN(c2ccc(-c3oc4ncnc(N5CCC(N)CC5)c4c3-c3ccc(F)cc3)cn2)CC1` [Example 270]: the half-inhibitory concentration (IC50) in data set [1] worked out at 30 nM. Still for that read-out and setting: the figure for `CCN1CCN(c2ccc(-c3oc4ncnc(N5CCN(CC)CC5)c4c3-c3ccc(F)cc3)cn2)CC1` [Example 326] is 15 nM.
